The source of these data is patent publication EP0443498A1, “Isoindoline derivatives” (KYORIN PHARMACEUTICAL CO., LTD., priority 1990, dated 1991).

As a reminder, the ED50 is the dose at which the effect has come halfway, by size or by number of responders.

In test [1] the test system is S. epidermidis IID866. In words: Antibacterial spectra (MIC), method of the Society of Chemotherapy in Japan. The format is cell-based. The following applies: Staphylococcus epidermidis; S. epidermidis IID866, Gram +, 10^6 cells/ml; read-out: Minimum inhibitory concentration for growth.
The test system of test [2] is S. enteritidis IID604. Described as above. The class given is cell-based. The following applies: Salmonella enterica; S. enteritidis IID604, Gram -, 10^6 cells/ml; read-out: Minimum inhibitory concentration for growth.
The subject of test [3] is A. anitratus IID876. Described as above. The class given is cell-based. The following applies: Acinetobacter calcoaceticus; A. anitratus IID876, Gram -, 10^6 cells/ml; read-out: Minimum inhibitory concentration for growth.
Test [4] deals with E. coli ML 4707. In words: Therapeutic effect on the systemic infection of mouse. The following applies: Escherichia coli, ML4707, po, 1 h, read-out: ED50 E. coli. The format is in vivo, ICR mice. How it is done:
(§1) The infectious bacteria were injected intraperitoneally using five ICR mice per group. one hour later, 5 doses of drugs were administered once orally, respectively, and, from a curve of survival rate of mouse as a function of dose of drug, a dose (EDso) by which 50% of animals escape the death to heal was determined.

In test [5] the test system is S. aureus Smith. The test is described as above. The format is in vivo, ICR mice. The following applies: Staphylococcus aureus, po, 1 h, read-out: ED50 S. aureus. How it is done: as §1
The test system of test [6] is S. aureus 209P. The test is described as follows: Antibacterial spectra (MIC), method of the Society of Chemotherapy in Japan. The following applies: Staphylococcus aureus, Gram +, 10^6 cells/ml, read-out: Minimum inhibitory concentration for growth. The format is cell-based.
The subject of test [7] is S. aureus Smith. The test is described as above. The class given is cell-based. The following applies: Staphylococcus aureus, Gram +, 10^6 cells/ml, read-out: Minimum inhibitory concentration for growth.
Test [8] relates to S. pneumoniae type III. Described as above. The class given is cell-based. The following applies: Streptococcus pneumoniae, Gram +, 10^6 cells/ml, read-out: Minimum inhibitory concentration for growth.
For test [9], the system named is C. freundii IID976. Described as above. The class given is cell-based. The following applies: Citrobacter freundii; C. freundii IID976, Gram -, 10^6 cells/ml; read-out: Minimum inhibitory concentration for growth.
The subject of test [10] is S. pyogenes S-8. The description is as above. The following applies: Streptococcus pyogenes, S8; S. pyogenes S-8, Gram +, 10^6 cells/ml; read-out: Minimum inhibitory concentration for growth. The format is cell-based.
The subject of test [11] is P. mirabilis IID994. The description is as above. The class given is cell-based. The following applies: Proteus mirabilis; P. mirabilis IID994, Gram -, 10^6 cells/ml; read-out: Minimum inhibitory concentration for growth.
For test [12], the system named is K. pneumoniae KY6445. Described as above. The format is cell-based. The following applies: Klebsiella pneumoniae; K. pneumoniae KY6445, Gram -, 10^6 cells/ml; read-out: Minimum inhibitory concentration for growth.
In test [13] the test system is B. thetaiotaomicron 0661. The test is described as above. The class given is cell-based. The following applies: Bacteroides thetaiotaomicron; B. thetaiotaomicron 0661, Gram -, 10^6 cells/ml; read-out: Minimum inhibitory concentration for growth.
Test [14] has as its system E. cloacae IID977. The test is described as above. The format is cell-based. The following applies: Enterobacter cloacae; E. cloacae IID977, Gram -, 10^6 cells/ml; read-out: Minimum inhibitory concentration for growth.
Test [15] deals with P. aeruginosa V-1. The description is as above. The class given is cell-based. The following applies: Pseudomonas aeruginosa, V1; P. aeruginosa V-1, Gram -, 10^6 cells/ml; read-out: Minimum inhibitory concentration for growth.
Test [16] relates to S. pneumoniae S-4288. Described as above. The class given is cell-based. The following applies: Streptococcus pneumoniae, S4288; S. pneumoniae S-4288, Gram +, 10^6 cells/ml; read-out: Minimum inhibitory concentration for growth.
Test [17] deals with S. pneumoniae IID552. The test is described as above. The class given is cell-based. The following applies: Streptococcus pneumoniae; S. pneumoniae IID552, Gram +, 10^6 cells/ml; read-out: Minimum inhibitory concentration for growth.
Test [18] deals with C. perfringens KYA13123. The test is described as follows: microbe, parasite or virus in culture. The class given is cell-based. The following applies: Clostridium perfringens, KYA13123, read-out: Minimum inhibitory concentration for growth.
Test [19] deals with P. vulgaris IFO3167. The test is described as follows: Antibacterial spectra (MIC), method of the Society of Chemotherapy in Japan. The format is cell-based. The following applies: Proteus vulgaris; P. vulgaris IFO3167, Gram -, 10^6 cells/ml; read-out: Minimum inhibitory concentration for growth.
Test [20] concerns E. faecalis IID682. The description is as above. The following applies: Enterococcus faecalis; E. faecalis IID682, Gram +, 10^6 cells/ml; read-out: Minimum inhibitory concentration for growth. The format is cell-based.
Test [21] has as its system P. aeruginosa IID1210. The test is described as above. The class given is cell-based. The following applies: Pseudomonas aeruginosa; P. aeruginosa IID1210, Gram -, 10^6 cells/ml; read-out: Minimum inhibitory concentration for growth.
The test system of test [22] is P. aeruginosa IFO12689. The test is described as above. The following applies: Pseudomonas aeruginosa; P. aeruginosa IFO12689, Gram -, 10^6 cells/ml; read-out: Minimum inhibitory concentration for growth. The format is cell-based.
Test [23] concerns E. coli NIHJ JC-2. The test is described as above. The following applies: Escherichia coli, NIHJJC2; E. coli NIHJ JC-2, Gram -, 10^6 cells/ml; read-out: Minimum inhibitory concentration for growth. The format is cell-based.
Test [24] concerns M. morganii IID602. Described as above. The format is cell-based. The following applies: Morganella morganii; M. morganii IID602, Gram -, 10^6 cells/ml; read-out: Minimum inhibitory concentration for growth.
Test [25] concerns S. marcescens IID618. The test is described as above. The class given is cell-based. The following applies: Serratia marcescens; S. marcescens IID618, Gram -, 10^6 cells/ml; read-out: Minimum inhibitory concentration for growth.
For test [26], the system named is S. sonnei IID969. The description is as above. The following applies: Shigella sonnei; S. sonnei IID969, Gram -, 10^6 cells/ml; read-out: Minimum inhibitory concentration for growth. The class given is cell-based. How it is done:
The antibacterial test was performed according to the method designated by Society of Chemotherapy in Japan.

The test system of test [27] is P. maltophilia GIFU2491. The description is as above. The format is cell-based. The following applies: Stenotrophomonas maltophilia; P. maltophilia GIFU2491, Gram -, 10^6 cells/ml; read-out: Minimum inhibitory concentration for growth.
The mark [28] stands for this setting: E. coli ML 4707, 8.8x10^6 CFU/mouse intraperitoneally, drug once orally one hour later, dose at which 50% of ICR mice survive.
The mark [29] stands for this setting: S. aureus Smith, 4.8x10^6 CFU/mouse intraperitoneally, drug once orally one hour later, dose at which 50% of ICR mice survive.

Structures can show the parent of a compound that is named as a salt. Where two headings read alike, the source gives them in different places.

In the case of `COc1c(N2C[C@@H](C)[C@H](N)C2)c(F)cc2c(=O)c(C(=O)O)cn(C3CC3)c12` [Example 33, 7-[3(S)-amino-4(R)-methyl-l-pyrrolidinyl]-1-cyclopropyl-6-fluoro-1,4-dihydro-8-methoxy-4-oxo-3-quinolinecarboxylic acid hydrochloride], the MIC in test [1] is 0.05 µg/mL; in [2] it was 0.05 µg/mL; in test [3], 0.05 µg/mL; in test [6] it was 0.025 µg/mL; in [7], 0.025 µg/mL; in test [8], 0.05 µg/mL. In addition, the MIC in test [9] amounted to 0.05 µg/mL; in test [10], 0.05 µg/mL; in test [11], 0.05 µg/mL; in test [12], 0.025 µg/mL; in [13], 0.2 µg/mL; in test [14], 0.05 µg/mL. Also, in test [15], the MIC amounted to 0.2 µg/mL. Besides, the ED50 in [4] (setting [28]) came out at 0.31 mg/kg; in test [5] (setting [29]), 1.21 mg/kg.

On to `COc1c(N2C[C@@H](N)[C@@H](C)C2)c(F)cc2c(=O)c(C(=O)O)cn(C3CC3)c12` [Example 34, 7-[3(S)amino-4(S)-methyl-1-pyrrolidinyl]-1-cyclopropyl-6-fluoro-1,4-dihydro-8-methoxy-4-oxo-3-quinolinecarboxyic acid hydrochloride], for which the MIC was 0.05 µg/mL in test [1]; 0.05 µg/mL in test [2]; 0.05 µg/mL in test [3]; 0.2 µg/mL in test [16]; 0.025 µg/mL in test [6]; 0.025 µg/mL in test [7]. For the same compound, the MIC in test [8] worked out at 0.05 µg/mL; in test [9], 0.05 µg/mL; in [17], 0.2 µg/mL; in test [18], 0.2 µg/mL; in [19], 0.025 µg/mL; in test [11] it was 0.025 µg/mL. Besides, the results for the MIC in test [12], in [20] and in [15] were 0.025 µg/mL, 0.2 µg/mL and 0.2 µg/mL, respectively. The ED50 in test [4] (setting [28]) stood at 0.26 mg/kg; in test [5] (setting [29]) it was 1.39 mg/kg.

On to `O=C(O)c1cn(C2CC2)c2cc(N3CCNCC3)c(F)cc2c1=O` [CPFX, Ciprofloxacin, reference compound], for which the 50% effective dose (ED50) in test [4] turned out to be 0.49 mg/kg; in test [5], 20.3 mg/kg.

`COc1c(N2C[C@H](C)[C@@H](N)C2)c(F)cc2c(=O)c(C(=O)O)cn(C3CC3)c12` [Example 36, 7-[3(R)-amino-4(S)-methyl-I-pyrrolidinyl]-I-cyclopropyl-6-fluoro-1-4-dihydro-8-methoxy-4-oxo-3-quinolinecarboxylic acid hydrochloride]: the 50% effective dose (ED50) in [4] (setting [28]) came out at 2.04 mg/kg; in test [5] (setting [29]), 6.08 mg/kg. The MIC came to 0.05 µg/mL in [6]; 0.2 µg/mL in [8]; 1.56 µg/mL in test [21]; 1.56 µg/mL in [22]; 0.025 µg/mL in [23]; 0.2 µg/mL in test [24]. The MIC in [10] was determined as 0.2 µg/mL; in test [19], 0.025 µg/mL; in test [25] it was 0.2 µg/mL; in [12], 0.05 µg/mL; in [13] it was 1.56 µg/mL; in test [14], 0.2 µg/mL. Also, the MIC in test [26] amounted to 0.025 µg/mL; in test [27], 0.2 µg/mL.

As for `COc1c(N2C[C@@H](C)[C@@H](N)C2)c(F)cc2c(=O)c(C(=O)O)cn(C3CC3)c12.Cl` [Example 35, 7-[3(R)-amino-4(R)-methyl-1-pyrrolidinyl]-1-cyclopropyl-6-fluoro-1,4-dihydro-8-methoxy-4-oxo-3-quinolinecarboxylic acid hydrochloride], the MIC is 0.05 µg/mL in test [1]; 0.05 µg/mL in [3]; 0.2 µg/mL in test [16]; 0.025 µg/mL in test [6]; 0.025 µg/mL in [7]; 1.56 µg/mL in [21]. The MIC came out at 1.56 µg/mL in test [22]; 0.2 µg/mL in test [17]; 0.025 µg/mL in test [23]; 0.2 µg/mL in [18]; 0.2 µg/mL in [10]; 0.025 µg/mL in [19]. Moreover, the MIC in test [11] turned out to be 0.05 µg/mL; in test [12] it was 0.05 µg/mL; in test [20], 0.2 µg/mL; in [26] it was 0.025 µg/mL. The ED50 is 1.11 mg/kg in test [4] (setting [28]) and 2 mg/kg in test [5] (setting [29]).
